For one assay, the target named is human CB2 receptor (Homo sapiens (Human), UniProt P34972). Description: CB2 receptor binding assay ([3H]CP-55,940 displacement, HEK-293 membranes). As to the method:
The compounds were evaluated in CB1R and CB2R binding assays using membranes from HEK-293 cells transfected with cDNAs encoding the human recombinant CB1R (Bmax=[…] protein) and human recombinant CB2R (Bmax=[…] protein) (Perkin-Elmer). […] Compounds were tested following the procedure described by the cell membrane manufacturer. […] CB2R binding assays were carried out with two different buffers: incubation buffer (Tris-HCl, 50 mM; MgCl2, 5 mM; CaCl2 1 mM; BSA, 0.2% at pH 7.4) and washing buffer (Tris-HCl, 50 mM; NaCl 500 mM; BSA, 0.1% at pH 7.4). […] Assays were performed in duplicate and incubated for […] at 37° C. […] Data are analyzed and IC50 is calculated using GraphPad Prism 5 and the model “log(inhibitor) vs. response—Variable slope”. The binding affinity of the compounds is Determined by Using the Cheng and Prusoff Equation Ki=IC50/(1+[radioligand]/Kd).

For a further assay, the target named is human recombinant CB1R (Homo sapiens (Human), UniProt P21554). Description: CB1 receptor binding assay ([3H]CP-55,940 displacement, HEK-293 membranes). How it is done:
The compounds were evaluated in CB1R and CB2R binding assays using membranes from HEK-293 cells transfected with cDNAs encoding the human recombinant CB1R (Bmax=[…] protein) and human recombinant CB2R (Bmax=[…] protein) (Perkin-Elmer). […]. Compounds were tested following the procedure described by the cell membrane manufacturer. […] CB2R binding assays were carried out with two different buffers: incubation buffer (Tris-HCl, 50 mM; MgCl2, 5 mM; CaCl2 1 mM; BSA, 0.2% at pH 7.4) and washing buffer (Tris-HCl, 50 mM; NaCl 500 mM; BSA, 0.1% at pH 7.4). […] Assays were performed in duplicate and incubated for […] at 37° C. After the incubation, the assay mixture is filtered through 96 GF/C filter plates (Perkin Elmer #6005174) using Perkin Elmer Filtermate Harvester, and then washed four times with ice-cold washing buffer. The filters are dried for 1 hour at 50° C. and [^3H] trapped on filter counted for radioactivity in Perkin Elmer Microscint 20 cocktail (#6013329) using Perkin Elmer MicroBeta2 Reader. […] Data are analyzed and IC50 is calculated using GraphPad Prism 5 and the model “log(inhibitor) vs. response—Variable slope”. The binding affinity of the compounds is Determined by Using the Cheng and Prusoff Equation Ki=IC50/(1+[radioligand]/Kd).

Where [1] appears, read: membranes of HEK-293 cells with human recombinant CB2R, [3H]CP-55,940, read-out: CB2 IC50.
Where [2] appears, read: membranes of HEK-293 cells with human recombinant CB1R, [3H]CP-55,940, read-out: CB1 IC50.
[3] abbreviates: membranes of HEK-293 cells with human recombinant CB2R, [3H]CP-55,940, class symbols, read-out: CB2 IC50.
Where [4] appears, read: membranes of HEK-293 cells with human recombinant CB1R, [3H]CP-55,940, class symbols, read-out: CB1 IC50.

This note sets out measurements from patent US11564928B1, “Cannabinoid receptor type 2 (CB2) modulators and uses thereof” (Teon Therapeutics, Inc., priority 2020, dated 2023).

A word on the IC50: it is the concentration needed to halve the response being measured.

Like-named read-outs stand apart in the source and are kept apart here. Where only a bound is given, the exact number is not on record here.

human recombinant CB1R, sequence (P21554 whole entry): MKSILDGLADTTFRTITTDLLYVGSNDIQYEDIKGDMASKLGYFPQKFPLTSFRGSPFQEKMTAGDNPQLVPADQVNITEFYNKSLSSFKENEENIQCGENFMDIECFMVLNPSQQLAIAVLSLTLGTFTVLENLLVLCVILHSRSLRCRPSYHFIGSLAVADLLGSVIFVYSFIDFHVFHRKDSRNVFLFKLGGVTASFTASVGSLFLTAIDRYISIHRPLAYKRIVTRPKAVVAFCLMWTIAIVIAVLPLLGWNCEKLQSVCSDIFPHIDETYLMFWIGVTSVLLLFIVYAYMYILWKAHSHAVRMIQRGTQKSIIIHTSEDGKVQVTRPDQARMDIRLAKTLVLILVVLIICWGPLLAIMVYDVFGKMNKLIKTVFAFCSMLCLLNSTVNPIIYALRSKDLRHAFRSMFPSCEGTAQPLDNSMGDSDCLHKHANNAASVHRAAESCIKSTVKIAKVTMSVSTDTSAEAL
human CB2 receptor, sequence (P34972 whole entry): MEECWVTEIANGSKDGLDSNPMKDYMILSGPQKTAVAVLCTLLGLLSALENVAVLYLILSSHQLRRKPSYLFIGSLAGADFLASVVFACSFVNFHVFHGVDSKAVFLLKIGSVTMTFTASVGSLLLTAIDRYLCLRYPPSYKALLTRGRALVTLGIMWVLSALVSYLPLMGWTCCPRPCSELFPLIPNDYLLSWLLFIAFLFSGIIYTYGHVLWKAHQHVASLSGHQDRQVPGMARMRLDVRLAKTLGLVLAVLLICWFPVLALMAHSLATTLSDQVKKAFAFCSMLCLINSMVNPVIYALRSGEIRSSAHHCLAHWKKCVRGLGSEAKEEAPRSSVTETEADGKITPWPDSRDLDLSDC

As for `COc1ccc(-c2cnc3c(c2)cc(C(=O)NC2CCC4(CC2)CC4)c(=O)n3CCN2CCOCC2)cc1` [Compound 28, 6-(4-methoxyphenyl)-1-(2-morpholinoethyl)-2-oxo-N-(spiro[2.5]octan-6-yl)-1,2-dihydro-1,8-naphthyridine-3-carboxamide], the IC50 on human CB2 receptor (setting [1]) was 0.7 nM; on human recombinant CB1R (setting [2]), more than 10000 nM.
Taken in the same sequence, the figures for `O=C(NC1CC2(CCC2)C1)c1cc2cc(-c3ccc(F)cc3)cnc2n(CCN2CCOCC2)c1=O` [Compound 32, 6-(4-fluorophenyl)-1-(2-morpholinoethyl)-2-oxo-N-(spiro[3.3]heptan-2-yl)-1,2-dihydro-1,8-naphthyridine-3-carboxamide] were 0.8 nM and 39 nM.
The matching figures for `O=C(NC1CC2(CCC2)C1)c1cc2cc(-c3ccccn3)cnc2n(CCN2CCOCC2)c1=O` [Compound 34, 1-(2-morpholinoethyl)-2-oxo-6-(pyridin-2-yl)-N-(spiro[3.3]heptan-2-yl)-1,2-dihydro-1,8-naphthyridine-3-carboxamide]: 1 nM and 184 nM.
The matching figures for `O=C(NC1CC2(CCC2)C1)c1cc2cc(-c3ccncn3)cnc2n(CCN2CCOCC2)c1=O` [Compound 35, 1-(2-morpholinoethyl)-2-oxo-6-(pyrimidin-4-yl)-N-(spiro[3.3]heptan-2-yl)-1,2-dihydro-1,8-naphthyridine-3-carboxamide]: 7.5 nM and 358 nM.
For `O=C(NC1CC2(CCC2)C1)c1cc2cc(-c3ccc(F)cn3)cnc2n(CCN2CCOCC2)c1=O` [Compound 37, 6-(5-fluoropyridin-2-yl)-1-(2-morpholinoethyl)-2-oxo-N-(spiro[3.3]heptan-2-yl)-1,2-dihydro-1,8-naphthyridine-3-carboxamide], the IC50 at human CB2 receptor (setting [1]) was 0.6 nM; at human recombinant CB1R (setting [2]), 112 nM.
In the case of `O=C(NC1CC2(CCC2)C1)c1cc2cc(-c3ncccn3)cnc2n(CCN2CCOCC2)c1=O` [Compound 38, 1-(2-morpholinoethyl)-2-oxo-6-(pyrimidin-2-yl)-N-(spiro[3.3]heptan-2-yl)-1,2-dihydro-1,8-naphthyridine-3-carboxamide], the IC50 at human CB2 receptor (setting [3]) was less than 100 nM; on human recombinant CB1R it was 100 to 999 nM.
In the case of `COc1ccc(-c2ccc3c(c2)cc(C(=O)NC2CCC(C)(C)CC2)c(=O)n3CCN2CCOCC2)cc1` [Compound 39, N-(4,4-dimethylcyclohexyl)-6-(4-methoxyphenyl)-1-(2-morpholinoethyl)-2-oxo-1,2-dihydroquinoline-3-carboxamide], the IC50 on human CB2 receptor (setting [1]) was 1.2 nM; at human recombinant CB1R (setting [2]), more than 10000 nM.
With `CC(NC(=O)c1cc2cc(-c3ccc(C#N)cn3)cnc2n(CCN2CCOCC2)c1=O)c1ccc(C#N)cc1` (centres unmarked) [Compound 41, N-(1-(4-cyanophenyl)ethyl)-6-(5-cyanopyridin-2-yl)-1-(2-morpholinoethyl)-2-oxo-1,2-dihydro-1,8-naphthyridine-3-carboxamide], the IC50 on human CB2 receptor is 100 to 999 nM; on human recombinant CB1R (setting [4]) it was more than 1000 nM.
On to `O=C(NC12CC(C1)C2)c1cc2cc(-c3ccc(OC(F)F)cc3)cnc2n(CCN2CCOCC2)c1=O` [Compound 54, N-(bicyclo[1.1.1]pentan-1-yl)-6-(4-(difluoromethoxy)phenyl)-1-(2-morpholinoethyl)-2-oxo-1,2-dihydro-1,8-naphthyridine-3-carboxamide], for which the IC50 on human CB2 receptor (setting [3]) was less than 100 nM; on human recombinant CB1R (setting [4]) it was more than 1000 nM.
For `CC(NC(=O)c1cc2cc(-c3ccc(C#N)cn3)cnc2n(CC(C)(C)N2CCOCC2)c1=O)c1ccc(F)cc1` (centres unmarked) [Compound 56, 6-(5-cyanopyridin-2-yl)-N-(1-(4-fluorophenyl)ethyl)-1-(2-methyl-2-morpholinopropyl)-2-oxo-1,2-dihydro-1,8-naphthyridine-3-carboxamide], the IC50 at human CB2 receptor (setting [3]) is less than 100 nM; at human recombinant CB1R (setting [4]), more than 1000 nM.
The matching figures for `CC(NC(=O)c1cc2cc(Br)cnc2n(Cc2ncccn2)c1=O)c1ccc(F)cc1` (centres unmarked) [Compound 64, 6-bromo-N-(1-(4-fluorophenyl)ethyl)-2-oxo-1-(pyrimidin-2-ylmethyl)-1,2-dihydro-1,8-naphthyridine-3-carboxamide]: more than 1000 nM and more than 1000 nM.
With `CC(NC(=O)c1cc2cc(-c3ccc(F)cc3)cnc2n(Cc2ncccn2)c1=O)c1ccc(F)cc1` (centres unmarked) [Compound 65, 6-(4-fluorophenyl)-N-(1-(4-fluorophenyl)ethyl)-2-oxo-1-(pyrimidin-2-ylmethyl)-1,2-dihydro-1,8-naphthyridine-3-carboxamide], the IC50 was 100 to 999 nM on human CB2 receptor and more than 1000 nM at human recombinant CB1R (setting [4]).
As for `CC(C)Oc1ccc(-c2cnc3c(c2)cc(C(=O)NC2CC4(CCC4)C2)c(=O)n3Cc2ccc(F)cc2)cc1` [Compound 66, 6-(4-isopropoxyphenyl)-1-(4-fluorobenzyl)-2-oxo-N-(spiro[3.3]heptan-2-yl)-1,2-dihydro-1,8-naphthyridine-3-carboxamide], the IC50 at human CB2 receptor (setting [3]) and at human recombinant CB1R (setting [4]) was more than 1000 nM throughout.
As to `O=C(NC1CC2(CCC2)C1)c1cc2cc(-c3ccc(OC4CC4)cc3)cnc2n(Cc2ccc(F)cc2)c1=O` [Compound 67, 6-(4-cyclopropoxyphenyl)-1-(4-fluorobenzyl)-2-oxo-N-(spiro[3.3]heptan-2-yl)-1,2-dihydro-1,8-naphthyridine-3-carboxamide], the IC50 at human CB2 receptor (setting [3]) and on human recombinant CB1R (setting [4]) was more than 1000 nM throughout.
With `CS(=O)(=O)c1ccc(-c2cnc3c(c2)cc(C(=O)NC2CC4(CCC4)C2)c(=O)n3Cc2ccc(F)cc2)cc1` [Compound 68, 1-(4-fluorobenzyl)-6-(4-(methylsulfonyl)phenyl)-2-oxo-N-(spiro[3.3]heptan-2-yl)-1,2-dihydro-1,8-naphthyridine-3-carboxamide], the IC50 at human CB2 receptor is 100 to 999 nM; on human recombinant CB1R (setting [4]), more than 1000 nM.
Turning to `O=C(Nc1ccccn1)c1cc2cc(Br)cnc2n(Cc2ccc(F)cc2)c1=O` [Compound 70, 6-bromo-1-(4-fluorobenzyl)-2-oxo-N-(pyridin-2-yl)-1,2-dihydro-1,8-naphthyridine-3-carboxamide], the IC50 was less than 100 nM at human CB2 receptor (setting [3]) and more than 1000 nM at human recombinant CB1R (setting [4]).
With `Cc1ccc(NC(=O)c2cc3cc(Br)cnc3n(Cc3ccc(F)cc3)c2=O)cc1` [Compound 71, 6-bromo-1-(4-fluorobenzyl)-2-oxo-N-(p-tolyl)-1,2-dihydro-1,8-naphthyridine-3-carboxamide], the IC50 at human CB2 receptor (setting [3]) and at human recombinant CB1R (setting [4]) was more than 1000 nM in each case.
`Cc1c(C(=O)NC2CCC(C)CC2)c(=O)n(CCN2CCOCC2)c2ncc(Br)cc12` (centres unmarked) [Compound 72, 6-bromo-4-methyl-N-(4-methylcyclohexyl)-1-(2-morpholinoethyl)-2-oxo-1,2-dihydro-1,8-naphthyridine-3-carboxamide]: the IC50 is less than 100 nM at human CB2 receptor (setting [3]) and more than 1000 nM at human recombinant CB1R (setting [4]).
In the case of `COc1ccc(-c2cnc3c(c2)c(C)c(C(=O)NC2CCC(C)CC2)c(=O)n3CCN2CCOCC2)cc1` (centres unmarked) [Compound 73, 6-(4-methoxyphenyl)-4-methyl-N-(4-methylcyclohexyl)-1-(2-morpholinoethyl)-2-oxo-1,2-dihydro-1,8-naphthyridine-3-carboxamide], the IC50 was 100 to 999 nM at human CB2 receptor and more than 1000 nM on human recombinant CB1R (setting [4]).
Regarding `COc1ccc(-c2cnc3c(c2)c(C)c(C(=O)NC2CC4(CCC4)C2)c(=O)n3CCN2CCOCC2)cc1` [Compound 74, 6-(4-methoxyphenyl)-4-methyl-1-(2-morpholinoethyl)-2-oxo-N-(spiro[3.3]heptan-2-yl)-1,2-dihydro-1,8-naphthyridine-3-carboxamide], the IC50 at human CB2 receptor (setting [3]) and at human recombinant CB1R (setting [4]) was more than 1000 nM throughout.
`COc1ccc(-c2cnc3c(c2)c(C)c(C(=O)NC(C)c2ccc(F)cc2)c(=O)n3CCN2CCOCC2)cc1` (centres unmarked) [Compound 75, N-(1-(4-fluorophenyl)ethyl)-6-(4-methoxyphenyl)-4-methyl-1-(2-morpholinoethyl)-2-oxo-1,2-dihydro-1,8-naphthyridine-3-carboxamide]: the IC50 on human CB2 receptor (setting [3]) and on human recombinant CB1R (setting [4]) was more than 1000 nM in each case.
Turning to `Cc1c(C(=O)NC2CC3(CCC3)C2)c(=O)n(Cc2ccc(F)cc2)c2ncc(Br)cc12` [Compound 76, 6-bromo-1-(4-fluorobenzyl)-4-methyl-2-oxo-N-(spiro[3.3]heptan-2-yl)-1,2-dihydro-1,8-naphthyridine-3-carboxamide], the IC50 on human CB2 receptor (setting [3]) is less than 100 nM; on human recombinant CB1R (setting [4]) it was more than 1000 nM.
